{"source": "patent US9763979B2", "about": "“Cardioplegic preparation” (Universitat Bern, priority 2008, dated 2017)", "assay": "Experimental and clinical tests of potassium bioavailability", "conditions": "in presence of xylitol and/or citric acid", "description": "As compared to previous cardioplegic solutions the preparation according to the invention has a higher potassium concentration. […] By increasing thus the initial content of potassium in the cardioplegic solution, the concentration necessary to achieve the cardioplegic effect is guaranteed."}
{"smiles": "[Cl-].[K+]", "note": "[Potassium ions, Potassium chloride]", "values": [{"measurement": "bioavailability of Potassium ions", "value": "reduced bioavailability"}]}
